Source: ChEMBL document CHEMBL1201862, “PubChem BioAssay data set” (2004)
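Grown in 96-well plates, cells were treated for 48 hours with each compound at five concentrations. Insufficient inhibition: endpoint recorded as highest concentration tested. Abbreviation: GI50, concentration required for 50% inhibition of growth.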 Activity calls are given as the source filed them. No stated cut-off is given here; in the data, active = GI50 up to about 1.1 µM and inactive = higher.

What was measured:
Test in all cases: inhibition of tumour cell growth, NCI panel, 48 h
MDA-MB-231 = tested on: MDA-MB-231
COLO 205 = tested on: COLO 205
SK-MEL-28 = tested on: SK-MEL-28
SK-OV-3 = tested on: SK-OV-3
SNB-19 = tested on: SNB-19
HOP-92 = tested on: HOP-92
EKVX = tested on: EKVX
SK-MEL-5 = tested on: SK-MEL-5
SF-268 = tested on: SF-268
OVCAR-8 = tested on: OVCAR-8
LOX IMVI = tested on: LOX IMVI
MDA-N = tested on: MDA-N
NCI-H226 = tested on: NCI-H226
BT-549 = tested on: BT-549
K562 = tested on: K562
MCF7 = tested on: MCF7
SF-539 = tested on: SF-539
A498 = tested on: A498

Measured: GI50

CN1C(=O)CC(=O)N1/C(=C/c1ccccc1)c1ccccc1
inactive: MDA-MB-231 12.6 µM | COLO 205 41 µM | SK-MEL-28 > 100 µM | SK-OV-3 > 100 µM | SNB-19 > 100 µM | HOP-92 75.5 µM | EKVX > 100 µM | SK-MEL-5 72.8 µM | SF-268 > 100 µM | OVCAR-8 > 100 µM | LOX IMVI 17 µM | MDA-N > 100 µM | NCI-H226 > 100 µM | BT-549 > 100 µM | K562 55.6 µM | MCF7 47.2 µM

Cc1ccc(C(=O)Cc2nc3c([nH]c2=O)c(C)nn3-c2ccccc2)c(C)c1
inactive: MDA-MB-231 > 10 µM | COLO 205 > 10 µM | SK-MEL-28 > 10 µM | SK-OV-3 > 10 µM | SNB-19 > 10 µM | HOP-92 6.04 µM | SK-MEL-5 > 10 µM | SF-268 > 10 µM | OVCAR-8 8.22 µM | LOX IMVI > 10 µM | MDA-N > 10 µM | SF-539 > 10 µM | BT-549 > 10 µM | K562 > 10 µM | MCF7 > 10 µM

COc1ccc(/C=C2\C[C@H]3[C@@H]4CCC5=C/C(=N/O)CC[C@]5(C)[C@H]4CC[C@]3(C)\C2=N\O)cc1OC
inactive: SK-MEL-28 88.5 µM | SK-OV-3 39.3 µM | SNB-19 52.6 µM | HOP-92 7.85 µM | EKVX 3.36 µM | SK-MEL-5 2.75 µM | SF-268 51.6 µM | OVCAR-8 11 µM | LOX IMVI 18.8 µM | MDA-N 11.6 µM | NCI-H226 2.51 µM | A498 33.1 µM | SF-539 16.3 µM | BT-549 57.8 µM | K562 6.92 µM | MCF7 6.87 µM

CCOC(=O)C1=NN(c2ccc(Cl)cc2)C2=CC(C)=NN(C)C(=S)N21
inactive: MDA-MB-231 44.5 µM | COLO 205 > 100 µM | SK-MEL-28 > 100 µM | SK-OV-3 29.9 µM | SNB-19 41.5 µM | HOP-92 30.8 µM | EKVX 29.9 µM | SK-MEL-5 > 100 µM | SF-268 45.2 µM | OVCAR-8 41.3 µM | LOX IMVI 47.1 µM | MDA-N > 100 µM | SF-539 22.6 µM | K562 > 100 µM | MCF7 > 10 µM

CC(=C(c1ccccc1)c1ccccc1)N1C(=O)CC(=O)N1C
inactive: COLO 205 > 100 µM | SK-MEL-28 55.5 µM | SK-OV-3 > 100 µM | SNB-19 81.7 µM | HOP-92 45.5 µM | EKVX 53.3 µM | SK-MEL-5 95.7 µM | SF-268 25.5 µM | OVCAR-8 99.1 µM | LOX IMVI 17 µM | MDA-N 48.3 µM | NCI-H226 > 100 µM | SF-539 26.3 µM | BT-549 34.8 µM | K562 55.5 µM | MCF7 43.8 µM

Cc1ccnc2nc(N)ccc12
inactive: MDA-MB-231 > 100 µM | COLO 205 > 100 µM | SK-MEL-28 > 100 µM | SK-OV-3 > 100 µM | SNB-19 > 100 µM | EKVX > 100 µM | SK-MEL-5 > 100 µM | SF-268 > 100 µM | OVCAR-8 > 100 µM | MDA-N > 100 µM | NCI-H226 > 100 µM | A498 > 100 µM | SF-539 > 100 µM | BT-549 > 100 µM | K562 > 100 µM

COc1ccc2c(c1)c1c(n2CCN(C)C)-c2ccccc2CC1
inactive: MDA-MB-231 13.6 µM | COLO 205 12.5 µM | SK-MEL-28 15 µM | SK-OV-3 20.2 µM | SNB-19 15.7 µM | HOP-92 16.5 µM | EKVX 9.77 µM | SK-MEL-5 14.9 µM | SF-268 18.1 µM | OVCAR-8 16.9 µM | LOX IMVI 16.6 µM | MDA-N 16 µM | NCI-H226 12.2 µM | SF-539 14 µM | BT-549 16.9 µM | K562 11.5 µM | MCF7 18.3 µM

C[Si](C)(C)/C(I)=C/CO
inactive: COLO 205 16.3 µM | SK-MEL-28 27.9 µM | SK-OV-3 32.5 µM | SNB-19 29.6 µM | HOP-92 24 µM | EKVX 29.9 µM | SK-MEL-5 19 µM | SF-268 27.1 µM | OVCAR-8 29.7 µM | LOX IMVI 19.3 µM | NCI-H226 20.4 µM | A498 38.6 µM | SF-539 20 µM | K562 19.4 µM

CCOC(=O)C1(C(F)(F)F)N=C(CC)OC(N2CCOCC2)=N1 (centres undefined)
inactive: MDA-MB-231 > 100 µM | COLO 205 > 100 µM | SK-MEL-28 > 100 µM | SK-OV-3 > 100 µM | SNB-19 > 100 µM | HOP-92 > 100 µM | EKVX > 100 µM | SK-MEL-5 > 100 µM | SF-268 > 100 µM | OVCAR-8 > 100 µM | LOX IMVI > 100 µM | MDA-N > 100 µM | SF-539 > 100 µM | BT-549 > 100 µM | K562 > 100 µM | MCF7 > 100 µM

N=C(N)SCCC(=O)CCSC(=N)N
inactive: MDA-MB-231 > 100 µM | COLO 205 > 100 µM | SK-MEL-28 > 100 µM | SK-OV-3 > 100 µM | SNB-19 > 100 µM | HOP-92 > 100 µM | SK-MEL-5 > 100 µM | SF-268 > 100 µM | OVCAR-8 > 100 µM | LOX IMVI > 100 µM | MDA-N > 100 µM | NCI-H226 > 100 µM | A498 5.5 µM | K562 99.5 µM | MCF7 > 100 µM

CC1(C)CN=C(Nc2ccc(F)cc2)S1
inactive: COLO 205 > 100 µM | SK-MEL-28 > 100 µM | SK-OV-3 > 100 µM | SNB-19 > 100 µM | HOP-92 59.7 µM | EKVX > 100 µM | SK-MEL-5 > 100 µM | SF-268 > 100 µM | OVCAR-8 > 100 µM | LOX IMVI > 100 µM | MDA-N > 100 µM | NCI-H226 > 100 µM | SF-539 > 100 µM | BT-549 > 100 µM | K562 > 100 µM | MCF7 > 100 µM

Cc1cc(=O)n2nc(CCl)sc2n1
inactive: MDA-MB-231 20.7 µM | COLO 205 18.7 µM | SK-MEL-28 13.2 µM | SK-OV-3 15.5 µM | SNB-19 15.8 µM | HOP-92 12.6 µM | EKVX 17.4 µM | SK-MEL-5 10.6 µM | SF-268 15.8 µM | OVCAR-8 16.7 µM | LOX IMVI 4.19 µM | MDA-N 14 µM | NCI-H226 13.9 µM | SF-539 18.7 µM | BT-549 3.58 µM | K562 17.8 µM | MCF7 13.8 µM

O=C(O)C(O)Cc1ccccn1 (centres undefined)
inactive: MDA-MB-231 > 100 µM | COLO 205 > 100 µM | SK-MEL-28 > 100 µM | SK-OV-3 > 100 µM | SNB-19 > 100 µM | HOP-92 > 100 µM | EKVX > 100 µM | SK-MEL-5 > 100 µM | SF-268 > 100 µM | OVCAR-8 > 100 µM | LOX IMVI > 100 µM | NCI-H226 > 100 µM | A498 > 100 µM | BT-549 > 100 µM | K562 > 100 µM | MCF7 > 100 µM

Cc1cc(=O)nc(S(=O)(=O)NC(=S)Nc2ccc(Cl)cc2)[nH]1
inactive: MDA-MB-231 > 100 µM | COLO 205 > 100 µM | SK-MEL-28 > 100 µM | SK-OV-3 > 100 µM | SNB-19 > 100 µM | HOP-92 > 100 µM | EKVX 39.5 µM | SK-MEL-5 > 100 µM | SF-268 > 100 µM | OVCAR-8 > 100 µM | MDA-N > 100 µM | NCI-H226 > 100 µM | A498 > 100 µM | SF-539 > 100 µM | BT-549 > 100 µM | MCF7 > 100 µM

CC12CCC(=O)[C@@]1(C)CCCC2O (some centres undefined)
inactive: MDA-MB-231 > 100 µM | COLO 205 > 100 µM | SK-MEL-28 > 100 µM | SK-OV-3 > 100 µM | SNB-19 > 100 µM | EKVX > 100 µM | SK-MEL-5 > 100 µM | SF-268 > 100 µM | OVCAR-8 > 100 µM | LOX IMVI > 100 µM | MDA-N > 100 µM | NCI-H226 > 100 µM | SF-539 > 100 µM | BT-549 > 100 µM | K562 > 100 µM | MCF7 > 100 µM

O=C(O)c1ccc(C(=O)O)c2c(C(=O)O)ccc(C(=O)O)c12
inactive: MDA-MB-231 > 100 µM | COLO 205 > 100 µM | SK-MEL-28 > 100 µM | SK-OV-3 > 100 µM | SNB-19 > 100 µM | HOP-92 > 100 µM | EKVX > 100 µM | SK-MEL-5 > 100 µM | SF-268 > 100 µM | OVCAR-8 > 100 µM | LOX IMVI > 100 µM | MDA-N > 100 µM | NCI-H226 > 100 µM | A498 > 100 µM | SF-539 > 100 µM | K562 > 100 µM | MCF7 > 100 µM

CC=C/C=C/[C@@H]1O[C@](O)([C@H](CC)C(=O)NC/C=C/C=C(\C)[C@@H](OC)[C@@H](C)[C@@H]2O[C@H](/C=C/C=C/C=C(\C)C(=O)c3c(O)cc[nH]c3=O)[C@H](O)[C@@H]2O)[C@H](O)[C@H](O)C1(C)C
inactive: SK-MEL-28 > 100 µM | SK-OV-3 > 100 µM | SNB-19 > 100 µM | HOP-92 > 100 µM | EKVX > 100 µM | SF-268 > 100 µM | OVCAR-8 72.3 µM | A498 > 100 µM | SF-539 > 100 µM | K562 > 100 µM | MCF7 > 100 µM
